Reference: patent US9862730B2, “Imidazothiadiazole derivatives as protease activated receptor 4 (PAR4) inhibitors for treating platelet aggregation” (BRISTOL-MYERS SQUIBB COMPANY, priority 2012, dated 2018)

The compounds below were run against PAR4 (Homo sapiens (Human), UniProt Q96RI0) (assay: FLIPR assay in PAR4-expressing HEK293 cells (PAR4 antagonist activity, calcium mobilization)). Settings: FLIPR assay as described in Example A.
Sequence of PAR4 (Q96RI0 18-385): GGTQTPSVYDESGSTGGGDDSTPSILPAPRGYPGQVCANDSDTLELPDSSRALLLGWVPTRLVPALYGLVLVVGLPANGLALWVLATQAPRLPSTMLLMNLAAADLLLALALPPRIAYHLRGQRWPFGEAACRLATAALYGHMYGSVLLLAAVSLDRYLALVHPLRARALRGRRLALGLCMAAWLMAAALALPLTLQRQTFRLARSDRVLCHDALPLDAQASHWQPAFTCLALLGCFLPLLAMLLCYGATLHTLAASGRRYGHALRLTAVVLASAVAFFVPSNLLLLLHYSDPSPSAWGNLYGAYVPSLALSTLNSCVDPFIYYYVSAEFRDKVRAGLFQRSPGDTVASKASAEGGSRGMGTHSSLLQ
Assay type: cell-based
Excerpt: The FLIPR assay is an exemplary in vitro assay for measuring the activity of the PAR4 antagonists of the present invention. In this assay, intracellular calcium mobilization is induced in PAR4 expressing cells by a PAR4 agonist and calcium mobilization is monitored. See, e.g., Example A.
HEK293 cells stably expressing PAR4 were generated by a standard method of transfection of human […] cDNA expression vector or by RAGE technology from Athersys Inc. (Cleveland, Ohio) and selected based on PAR4 protein expression of mRNA expression. […] These cells express endogenous PAR1 and can elicit calcium signal upon stimulation with PAR1 agonist peptide.
Counter screens for agonist activity and PAR1 antagonist activity were also performed. Briefly, HEK293 EBNA PAR4 clone 20664.1J cells were plated 24 hrs. prior to experiment in 384 well, Poly-D-Lysine coated, black, clear bottom plates (Greiner Bio-One, Monroe, N.C.). Cells were plated at 20,000 cells/well in 20 μl growth medium and incubated at 37° C. with 5% CO2 overnight. At time of assay, media was replaced with 40 μl 1× Hank's Buffered Saline Solution (HBSS) (with 10 mM HEPES) and 20 μl test compound also diluted in 1×HBSS buffer was added at various concentrations and 0.67% DMSO final concentration on the FDSS for agonist measurement. The cells were then incubated for 30 minutes at room temperature followed by addition of 20 μl of agonist peptide for antagonist measurement on the FDSS.
As indicated above, the FLIPR assay, an in vitro assay, measures the PAR4 antagonist activity of compounds tested as described in Example A.
`COc1ccc2cc(-c3cn4nc(C(C)(F)F)sc4n3)oc2c1` [Example 271] showed an IC50 of 0.0194 µM. In the case of `COc1cc(OCc2ccccc2)c2nc(-c3cn4nc(OC)sc4n3)oc2c1` [Example 121, 4-(Benzyloxy)-6-methoxy-2-(2-methoxyimidazo[2,1-b][1,3,4]thiadiazol-6-yl)benzo[d]oxazole], the IC50 is reported as 0.013 µM. `COc1ccc(COc2cccc3oc(-c4cn5nc(SC)sc5n4)nc23)cc1` [Example 172] was tested, and the IC50 was 0.814 µM. Work on `CSc1nn2cc(-c3nc4c(OCCN5CCOCC5)cccc4o3)nc2s1` [Example 168] yielded an IC50 of 1.15 µM. Compound `CSc1nn2cc(-c3cc4ccc(C)c(C)c4o3)nc2s1` [Example 107] has an IC50 of 0.339 µM. For `COc1cc(OC[C@@H]2CCCN2C(=O)OC(C)(C)C)c2cc(-c3cn4nc(OC)sc4n3)oc2c1` [Example 342-343], the IC50 was 0.253 µM. For `CCc1nn2cc(-c3nc4ccc(OCc5ccc(OC)cc5)cc4o3)nc2s1` [Example 84], the IC50 was 0.101 µM. `COc1cc(OCc2cccc(OCc3ccccc3Cl)c2)c2cc(-c3cn4nc(OC)sc4n3)oc2c1` [Example 362] gave an IC50 of 0.00124 µM. `CSc1nn2cc(-c3cc4cccc(Cl)c4o3)nc2s1` [Example 23] gave an IC50 of 0.144 µM. `CC(F)(F)c1nn2cc(-c3cc4cccc(OC(F)(F)F)c4o3)nc2s1` [Example 240] was tested, and the IC50 was 0.671 µM. `Cc1cc(C(F)(F)F)c2cc(-c3cn4nc(Br)sc4n3)oc2n1` [Example 306] showed an IC50 of 1.1 µM. With `CCOc1cc(OC)cc2oc(-c3cn4nc(Br)sc4n3)cc12` [Example 267] the IC50 was 0.00753 µM. With `COc1cc(OCc2cccc(OCc3cncnc3)c2)c2cc(-c3cn4nc(OC)sc4n3)oc2c1` [Example 329] the IC50 was 0.0716 µM. `COc1nn2cc(-c3cc4cc(Cl)c(OC)cc4o3)nc2s1` [Example 201, 2-Methoxy-6-(5-chloro-6-methoxybenzofuran-2-yl)imidazo[2,1-b][1,3,4]thiadiazole] gave an IC50 of 0.00438 µM. In the case of `COc1nn2cc(-c3nc4ccc(OCc5ccc(C(F)(F)F)cc5)cc4o3)nc2s1` [Example 165], the IC50 is reported as 0.081 µM. `CSc1nn2cc(-c3cc4c(OCC#N)cccc4o3)nc2s1` [Example 248] showed an IC50 of 0.145 µM. `COc1cc(OCc2ccc(C)c(OCc3ccccc3)c2)c2cc(-c3cn4nc(OC)sc4n3)oc2c1` [Example 352] was tested, and the IC50 was 0.00361 µM. `COc1cc(OCc2cccc(OCc3ccc(F)cc3C(F)(F)F)c2)c2cc(-c3cn4nc(OC)sc4n3)oc2c1` [Example 385] gave an IC50 of 0.00313 µM. `CSc1nn2cc(-c3cc4cc(OCc5ccccc5)ccc4o3)nc2s1` [Example 230] was tested, and the IC50 was 2.3 µM. `CSc1nn2cc(-c3nc4c(OC[C@H]5CCCN5C(=O)OC(C)(C)C)cccc4o3)nc2s1` [Example 331, (R)-tert-Butyl 2-(((2-(2-(methylthio)imidazo[2,1-b][1,3,4]thiadiazol-6-yl)benzo[d]oxazol-4-yl)oxy)methyl)pyrrolidine-1-carboxylate] gave an IC50 of 0.0843 µM. `COc1nn2cc(-c3cc4cc([N+](=O)[O-])ccc4o3)nc2s1` [Example 100] showed an IC50 of 0.0714 µM. In the case of `Fc1cccc2oc(-c3cn4nc(Br)sc4n3)cc12` [Example 276], the IC50 is reported as 0.12 µM. With `COc1cc2oc(-c3cn4nc(SC)sc4n3)cc2cc1Br` [Example 261] the IC50 was 0.00453 µM. `CSc1nn2cc(-c3nc4c(OC[C@H]5CCCN5C(=O)[C@H](NC(=O)c5cccs5)c5ccccc5)cccc4o3)nc2s1` [Example 336, N—((R)-2-((R)-2-(((2-(2-(Methylthio)imidazo[2,1-b][1,3,4]thiadiazol-6-yl)benzo[d]oxazol-4-yl)oxy)methyl)pyrrolidin-1-yl)-2-oxo-1-phenylethyl)thiophene-2-carboxamide] was tested, and the IC50 was 0.897 µM. For `CC(F)(F)c1nn2cc(-c3nc4c([N+](=O)[O-])cccc4o3)nc2s1` [Example 123, 2-(2-(1,1-Difluoroethyl)imidazo[2,1-b][1,3,4]thiadiazol-6-yl)-4-nitrobenzo[d]oxazole], the IC50 was 1.12 µM. `COc1cc2oc(-c3cn4nc([C@H](C)F)sc4n3)cc2cc1Cl` [270-1] gave an IC50 of 0.00953 µM. `COCOc1cccc2oc(-c3cn4nc(OC)sc4n3)cc12` [Example 217, 2-Methoxy-6-(4-(methoxymethoxy)benzofuran-2-yl)imidazo[2,1-b][1,3,4]thiadiazole] showed an IC50 of 0.00751 µM. `CCOc1cc(OCc2cccc(OCc3ccccc3)c2)c2cc(-c3cn4nc(SC)sc4n3)oc2c1` [Example 423] showed an IC50 of 0.0151 µM. `COc1nn2cc(-c3cc4c(OCc5cccc(OCc6ccccc6)c5)cc(F)cc4o3)nc2s1` [Example 427] was tested, and the IC50 was 0.00191 µM. With `COc1cc(Br)cc2cc(-c3cn4nc(SC)sc4n3)oc12` [Example 284] the IC50 was 0.139 µM. For `CSc1nn2cc(-c3nc4ccc(OCc5ccccn5)cc4o3)nc2s1` [Example 117, 2-(2-(Methylthio)imidazo[2,1-b][1,3,4]thiadiazol-6-yl)-6-(pyridin-2-ylmethoxy)benzo[d]oxazole], the IC50 was 0.654 µM. Work on `CSc1nn2cc(-c3nc4cc(OC(F)(F)F)ccc4o3)nc2s1` [Example 139] yielded an IC50 of 0.0804 µM. Work on `COc1cc(OCc2cccc(OCc3cc(OC)c(OC)c(OC)c3)c2)c2cc(-c3cn4nc(OC)sc4n3)oc2c1` [Example 380] yielded an IC50 of 0.00111 µM. `COc1cc(OCc2cccc(OCc3c(OC)cccc3OC)c2)c2cc(-c3cn4nc(OC)sc4n3)oc2c1` [Example 388] gave an IC50 of 0.00312 µM. `COc1cc(OCc2cccc(OCc3ccccc3)c2)c2cc(-c3cn4nc(SC)sc4n3)oc2c1` [Example 345] gave an IC50 of 0.00097 µM. In the case of `CSc1nn2cc(-c3cc4ccccc4o3)nc2s1` [Example 1, 6-(Benzofuran-2-yl)-2-(methylthio)imidazo[2,1-b][1,3,4]thiadiazole], the IC50 is reported as 0.014 µM. Work on `CSc1nn2cc(-c3nc4c(OCc5ccc(Cl)cc5)cccc4o3)nc2s1` [Example 157] yielded an IC50 of 1.65 µM. Work on `CSc1nn2cc(-c3nc4ccc(OCC5CC5)cc4o3)nc2s1` [Example 174] yielded an IC50 of 0.167 µM. Compound `CSc1nn2cc(-c3nc4c(OCc5ccncc5)cccc4o3)nc2s1` [Example 167] has an IC50 of 0.785 µM. `COc1nn2cc(-c3cc4c(OCc5cccc(OCc6ccccc6)c5)cc(Cl)cc4o3)nc2s1` [Example 414, 6-(4-((3-(Benzyloxy)benzyl)oxy)-6-chlorobenzofuran-2-yl)-2-methoxyimidazo[2,1-b][1,3,4]thiadiazole] gave an IC50 of 0.00517 µM. For `CSc1nn2cc(-c3nc4c(N)cccc4o3)nc2s1` [Example 120, 2-(2-(Methylthio)imidazo[2,1-b][1,3,4]thiadiazol-6-yl)benzo[d]oxazol-4-amine], the IC50 was 0.0489 µM. Work on `COc1cc2oc(-c3cn4nc(Br)sc4n3)cc2cc1Cl` [Example 200, 2-Bromo-6-(5-chloro-6-methoxybenzofuran-2-yl)imidazo[2,1-b][1,3,4]thiadiazole] yielded an IC50 of 0.00863 µM. With `COc1nn2cc(-c3cc4c(OCc5cccc(C#N)c5)cccc4o3)nc2s1` [Example 281] the IC50 was 1.34 µM. With `Cc1cc2nc(-c3cn4nc(C(C)(F)F)sc4n3)oc2cc1C` [Example 179] the IC50 was 0.225 µM. `CSc1nn2cc(-c3nc4cc(F)c(F)cc4o3)nc2s1` [Example 137] was tested, and the IC50 was 0.0239 µM. For `CSc1nn2cc(-c3nc4c(OCc5ccccc5)cccc4o3)nc2s1` [Example 148], the IC50 was 0.224 µM. `CSc1nn2cc(-c3nc4c(C)cccc4o3)nc2s1` [Example 128] gave an IC50 of 0.0171 µM. Work on `COc1ccc2cc(-c3cn4nc(C(C)F)sc4n3)oc2c1` (stereo not shown) [Example 293] yielded an IC50 of 0.00483 µM. `CCCOc1cccc2cc(-c3cn4nc(CC)sc4n3)oc12` [Example 56] was tested, and the IC50 was 0.601 µM. `CSc1nn2cc(-c3cc4ccc(C(=O)NCc5ccccc5)cc4o3)nc2s1` [Example 220, N-Benzyl-2-(2-(methylthio)imidazo[2,1-b][1,3,4]thiadiazol-6-yl)benzofuran-6-carboxamide] was tested, and the IC50 was 0.307 µM. For `CSc1nn2cc(-c3nc4c(OCc5ccccn5)cccc4o3)nc2s1` [Example 166], the IC50 was 0.139 µM. Compound `COc1cc(OCc2cccc(OCc3cc(C(F)(F)F)ccc3F)c2)c2cc(-c3cn4nc(OC)sc4n3)oc2c1` [Example 321] has an IC50 of 0.00673 µM. `CSc1nn2cc(-c3nc4c(OCc5cccc(C#N)c5)cccc4o3)nc2s1` [Example 156] was tested, and the IC50 was 1.02 µM. Compound `FC(F)(Cl)c1nn2cc(-c3cc4ccccc4o3)nc2s1` [Example 209, 6-(Benzofuran-2-yl)-2-(chlorodifluoromethyl)imidazo[2,1-b][1,3,4]thiadiazole] has an IC50 of 0.442 µM. With `COc1nn2cc(-c3cc4cccc(C(C)C)c4o3)nc2s1` [Example 101] the IC50 was 0.0107 µM. `COc1cc(OCc2cccc(OCc3ccc(C)cc3C)c2)c2cc(-c3cn4nc(OC)sc4n3)oc2c1` [Example 312] gave an IC50 of 0.00213 µM. Work on `Brc1nn2cc(-c3cc4c(OCc5ccccc5)cc(OCc5ccccc5)cc4o3)nc2s1` [Example 254] yielded an IC50 of 0.604 µM. For `FC(F)C(F)(F)c1nn2cc(-c3cc4ccccc4o3)nc2s1` [Example 208, 6-(Benzofuran-2-yl)-2-(1,1,2,2-tetrafluoroethyl)imidazo[2,1-b][1,3,4]thiadiazole], the IC50 was 0.457 µM. Work on `CC(F)c1nn2cc(-c3nc4ccccc4s3)nc2s1` (stereo not shown) [Example 186, 2-(2-(1-Fluoroethyl)imidazo[2,1-b][1,3,4]thiadiazol-6-yl)benzo[d]thiazole] yielded an IC50 of 0.252 µM. With `CC(F)(F)c1nn2cc(-c3cc4ccccc4o3)nc2s1` [Example 207, 6-(Benzofuran-2-yl)-2-(1,1-difluoroethyl)imidazo[2,1-b][1,3,4]thiadiazole] the IC50 was 0.127 µM. `COc1cc(OC(C)C)c2cc(-c3cn4nc(OC)sc4n3)oc2c1` [Example 300] showed an IC50 of 0.00343 µM.
